Measurements: patent US20130344026A1, “Dimeric Smac Mimetics” (priority 2009, published 2013)
Where two headings read alike, the source gives them in different places.

System: PANC-1 cells
Experiment: cell viability assay in PANC-1 cells (compound alone, + 100 ng/ml TNFa, + 300 ng/ml TRAIL)
Type: cell-based
[1] = Homo sapiens, PANC-1, compound alone, Tables 6-10, read-out: IC50 (μM) in cell viability assay in PANC-1 cells: Compound alone
[2] = with 100 ng/ml TNFa, Tables 6-10, read-out: IC50 (μM) in cell viability assay in PANC-1 cells: Compound + 100 ng/ml TNFa
[3] = with 300 ng/ml TRAIL, Tables 6-10, read-out: IC50 (μM) in cell viability assay in PANC-1 cells: Compound + 300 ng/ml TRAIL
[4] = Homo sapiens, PANC-1, compound alone, Tables 15-18, read-out: IC50 (uM) in cell viability assay in PANC-1 cells: Cmpnd alone
[5] = with 100 ng/ml TNFa, Tables 15-18, read-out: IC50 (uM) in cell viability assay in PANC-1 cells: Cmpnd + 100 ng/ml TNFa
[6] = with 300 ng/ml TRAIL, Tables 15-18, read-out: IC50 (uM) in cell viability assay in PANC-1 cells: Cmpnd + 300 ng/ml TRAIL
[7] = PANC-1 cells, + 100 ng/ml TNFa, read-out: IC50 (uM) in cell viability assay in PANC-1 cells, Cmpnd + 100 ng/ml TNFa
[8] = PANC-1 cells, + 300 ng/ml TRAIL, read-out: IC50 (uM) in cell viability assay in PANC-1 cells, Cmpnd + 300 ng/ml TRAIL

IC50 [1] [µM] | IC50 [2] [µM] | IC50 [3] [µM] | SMILES | other results
> 1 | 0.683 | 0.616 | CN[C@@H](C)C(=O)NC(C(=O)N[C@@H](CCC(=O)NCCc1cn([C@H]2C[C@@H](C(=O)N[C@@H]3CCCc4ccccc43)N(C(=O)[C@@H](NC(=O)[C@H](C)NC)C(C)(C)C)C2)nn1)C(=O)N[C@H](C)C(C)C)C(C)C (stereo partly shown) [Compound 203] | –
– | – | – | CN[C@@H](C)C(=O)N[C@H](C(=O)N1CCC[C@H]1c1cc(C(=O)OC)c(-c2cn(CC#CC#CCn3cc(-c4oc([C@@H]5CCCN5C(=O)[C@@H](NC(=O)[C@H](C)NC)C(C)(C)C)cc4C(=O)OC)c4ccccc43)c3ccccc23)o1)C(C)(C)C [Compound P4-25] | IC50 [4]: > 1 µM; IC50 [5]: 0.0342 µM; IC50 [6]: 0.0408 µM
> 1 | 0.01 | 0.019 | CN[C@@H](C)C(=O)N[C@H](C(=O)N1C[C@@H](NC(=O)c2cccc(C(=O)N[C@H]3C[C@@H](C(=O)N[C@H](C)c4ccccc4)N(C(=O)[C@@H](NC(=O)[C@H](CO)NC)C(C)(C)C)C3)c2)C[C@H]1C(=O)N[C@@H]1CCCc2ccccc21)C(C)(C)C [Compound 173] | –
– | – | – | CN[C@@H](C)C(=O)N[C@H](C(=O)N1CCC[C@H]1C(=O)N[C@H](COC(=O)c1cccc(C(=O)OC[C@@H](NC(=O)[C@@H]2CCCN2C(=O)[C@@H](NC(=O)[C@H](C)NC)C(C)(C)C)c2ccccc2)c1)c1ccccc1)C(C)(C)C [Compound P4-23] | IC50 [4]: > 1 µM; IC50 [5]: 0.014 µM; IC50 [6]: 0.006 µM
> 1 | 0.044 | 0.063 | CN[C@@H](C)C(=O)N[C@H](C(=O)N[C@@H](CCNC(=O)CC[C@H](NC(=O)[C@@H](NC(=O)[C@H](C)NC)C(C)(C)C)C(=O)N[C@@H]1CCCc2ccccc21)C(=O)N[C@@H]1CCCc2ccccc21)C(C)(C)C [Compound 171] | –
> 1 | 0.046 | 0.052 | CCC1(NC(=O)[C@@H]2C[C@H](NC(=O)c3cc(C(=O)N[C@H]4C[C@@H](C(=O)NC5(CC)CCCc6ccccc65)N(C(=O)[C@@H](NC(=O)[C@H](C)NC)C(C)(C)C)C4)[nH]n3)CN2C(=O)[C@@H](NC(=O)[C@H](C)NC)C(C)(C)C)CCCc2ccccc21 (stereo partly shown) [Compound 52] | –
> 1 | 0.004 | 0.003 | CN[C@@H](C)C(=O)N[C@@H](CCCCCC[C@H](NC(=O)[C@H](C)NC)C(=O)N1CC(F)(F)C[C@H]1C(=O)N[C@@H]1CCCc2ccccc21)C(=O)N1CC(F)(F)C[C@H]1C(=O)N[C@@H]1CCCc2ccccc21 [Compound 109] | –
> 1 | 0.035 | 0.05 | CC[C@H](NC(=O)[C@H](C)NC)C(=O)N[C@@H](CCNC(=O)c1cccc(C(=O)N[C@H]2C[C@@H](C(=O)N[C@@H]3CCCc4ccccc43)N(C(=O)[C@@H](NC(=O)[C@H](C)NC)C(C)(C)C)C2)c1)C(=O)N[C@H](C)c1ccccc1 [Compound 177] | –
– | – | – | CN[C@@H](C)C(=O)N[C@H](C(=O)N1C[C@@H](NC(=O)C2CCCC(C(=O)N[C@H]3C[C@@H](C(=O)N[C@H](C)c4ccccc4)N(C(=O)[C@@H](NC(=O)[C@H](C)NC)C(C)(C)C)C3)C2)C[C@H]1C(=O)N[C@H](C)c1ccccc1)C(C)(C)C (stereo partly shown) [Compound P3-97] | IC50 [7]: 0.059 µM; IC50 [8]: 0.065 µM; IC50 (PANC-1 cells, compound alone, read-out: IC50 (uM) in cell viability assay in PANC-1 cells, Cmpnd alone): > 1 µM
– | – | – | CN[C@@H](C)C(=O)N[C@H](C(=O)N1CCC[C@H]1CN(CCc1ccccc1)C(=O)C(F)(F)F)[C@@H](C)OCC#CC#CCN(C(=O)[C@H](C)NC)[C@H](C(=O)N1CCC[C@H]1CN(CCc1ccccc1)C(=O)C(F)(F)F)[C@@H](C)O [Compound P4-19] | IC50 [4]: > 1 µM; IC50 [5]: 0.005 µM; IC50 [6]: 0.006 µM
> 1 | 0.466 | 0.227 | CN[C@@H](C)C(=O)N[C@H](C(=O)N1C[C@@H](NC(=O)c2cccc(C(=O)N[C@H]3C[C@@H](C(=O)N[C@H](C)C4OCCCO4)N(C(=O)[C@@H](NC(=O)[C@H](C)NC)C(C)(C)C)C3)c2)C[C@H]1C(=O)N[C@H](C)C1OCCCO1)C(C)(C)C [Compound 53] | –
– | – | – | CN[C@@H](C)C(=O)N[C@H](C(=O)N1CCC[C@H]1c1nc(C(=O)NCCCCCCCCNC(=O)c2nc([C@@H]3CCCN3C(=O)[C@@H](NC(=O)[C@H](C)NC)C(C)(C)C)oc2-c2c[nH]c3ccccc23)c(-c2c[nH]c3ccccc23)o1)C(C)(C)C [Compound P4-26] | IC50 [4]: > 1 µM; IC50 [5]: 0.0007 µM; IC50 [6]: 0.0007 µM
– | – | – | C[C@H](N)C(=O)N[C@H](C(=O)N1C[C@@H](NC(=O)c2cccc(C(=O)N[C@H]3C[C@@H](C(=O)N[C@H]4CCCc5ccccc54)N(C(=O)[C@@H](NC(=O)[C@H](C)N)C(C)(C)C)C3)c2)C[C@H]1C(=O)N[C@H]1CCCc2ccccc21)C(C)(C)C [Compound P3-106] | IC50 (Homo sapiens, PANC-1 cells, compound alone, read-out: IC50 (uM) in cell viability assay in PANC-1 cells, Cmpnd alone): > 1 µM; IC50 [7]: 0.193 µM; IC50 [8]: 0.115 µM
> 1 | 0.037 | 0.072 | CN[C@@H](C)C(=O)N[C@H](C(=O)N[C@@H](CCNC(=O)c1cccc(C(=O)N[C@H]2C[C@@H](C(=O)N[C@@H]3CCCc4ccccc43)N(C(=O)[C@@H](NC(=O)[C@H](C)NC)C3CCCCC3)C2)c1)C(=O)N[C@H](C)C(C)C)C(C)C [Compound 181] | –
– | – | – | C#CC[C@H](NC(=O)[C@H](C)NC)C(=O)N1C[C@@H](NC(=O)c2cc(N)cc(C(=O)N[C@H]3C[C@@H](C(=O)N[C@@H]4CCCc5ccccc54)N(C(=O)[C@@H](NC(=O)[C@H](C)NC)C(C)(C)C)C3)c2)C[C@H]1C(=O)N[C@@H]1CCCc2ccccc21 [Compound H-6] | IC50 [4]: > 1 µM; IC50 [5]: 0.0229 µM; IC50 [6]: 0.0611 µM

SMILES | IC50 [1] [µM] | IC50 [2] [µM] | IC50 [3] [µM] | other results
CN[C@@H](C)C(=O)N[C@H](C(=O)N1C[C@@H](NC(=O)c2cccc(C(=O)N[C@H]3C[C@@H](C(=O)NC4CCCc5ccc([N+](=O)[O-])cc54)N(C(=O)[C@@H](NC(=O)[C@H](C)NC)C(C)(C)C)C3)c2)C[C@H]1C(=O)NC1CCCc2ccc([N+](=O)[O-])cc21)C(C)(C)C (single isomer, unassigned) [Compound 64] | > 1 | 0.18 | 0.151 | –
CN[C@@H](C)C(=O)N[C@@H](CCCCCC[C@H](NC(=O)[C@H](C)NC)C(=O)N1CCC[C@H]1c1ncc(C(=O)NC(c2ccccc2)c2ccccc2)o1)C(=O)N1CCC[C@H]1c1ncc(C(=O)NC(c2ccccc2)c2ccccc2)o1 [Compound 23] | > 1 | > 1 | > 1 | –
CN[C@@H](C)C(=O)N[C@@H](CCCCCC[C@H](NC(=O)[C@H](C)NC)C(=O)N1CCC[C@H]1CNC(=O)c1cc2ccccc2cc1OC)C(=O)N1CCC[C@H]1CNC(=O)c1cc2ccccc2cc1OC [Compound 38] | > 1 | > 1 | > 1 | –
CN[C@@H](C)C(=O)N[C@@H](CCCCCC[C@H](NC(=O)[C@H](C)NC)C(=O)N1CCC[C@H]1CNC(=O)c1ccccc1O)C(=O)N1CCC[C@H]1CNC(=O)c1ccccc1O [Compound 20] | > 1 | > 1 | > 1 | –
CN[C@@H](C)C(=O)N[C@H](C(=O)N1CCC[C@H]1C(=O)N[C@H]1c2ccccc2C[C@H]1OCCCCCCO[C@@H]1Cc2ccccc2[C@@H]1NC(=O)[C@@H]1CCCN1C(=O)[C@@H](NC(=O)[C@H](C)NC)C(C)(C)C)C(C)(C)C [Compound 120] | > 1 | – | – | –
CN[C@@H](C)C(=O)N[C@H](C(=O)N1CCC[C@H]1C(=O)N[C@H](C)c1ccccc1)[C@H](C)NC(=O)c1ccc(C(=O)N[C@@H](C)[C@H](NC(=O)[C@H](C)NC)C(=O)N2CCC[C@H]2C(=O)N[C@H](C)c2ccccc2)cc1 [Compound 114] | > 1 | 0.199 | 0.184 | –
